# Patent US20140163061A1, “Methods For Reducing Blood Pressure” (FibroGen, Inc., priority 2008, published 2014)
# What was measured:
# [1] = test system: Nx rats (5/6 nephrectomy, hypertensive chronic kidney disease); assay: Rat remnant kidney model (5/6 nephrectomy) of CKD, tail-cuff systolic blood pressure, Example 3; format: in vivo; settings: mean±SEM, p<0.05 vs vehicle-treated Nx rats (195.7±24.4)
# Experimental: (§1) A characteristic pathophysiology found in the uremic chronic kidney disease (CKD) population is hypertension. […] (Priyadarshi et al. (2002) Kidney Int 61:542-546; Coleman et al. (2006) Proc Natl Acad Sci USA 103:5965-5970.) The surgical procedure used to generate the rat remnant kidney was performed according to modification of the procedure described by Priyadarshi et al. (supra) or according to modification of the procedure described by Tanaka et al. (2005, Lab Invest 85:1292-1307). Separate studies used either male Sprague Dawley rats (280-300 g) or female Wistar rats (220-250 g).
# Animals were divided into two groups of which one group (sham) underwent sham surgery and the other group (Nx) was subjected to 5/6 nephrectomy as follows. […] Animal body weight and mortality were closely monitored.
# Starting 35 days after surgery, Nx and sham animals were randomly divided into groups and treated with either vehicle or compound A. Compound was dosed three times per week by oral gavage at 20 or 40 mg/kg compound per dose. Blood pressure (BP) was measured using a Kent XBP1000 system (Kent Scientific Corp., Torrington, Conn.) or a Muromachi tail-cuff blood pressure system (Muromachi Kikai Co., Ltd., Tokyo, Japan), both having volume/pressure recording technology and used according to the manufacturer's instruction. […]
# [2] = test system: Nx rats (5/6 nephrectomy, hypertensive chronic kidney disease); assay: Nx rats treated with various HIF prolyl hydroxylase inhibitors, change in systolic blood pressure after four weeks, Example 4; format: in vivo, rat; settings: 40 mg/kg oral
# Experimental: as §1
# Animals were divided into two groups of which one group (sham) underwent sham surgery and the other group (Nx) was subjected to 5/6 nephrectomy as follows. Animals were anesthetized under isoflurane, and a midline abdominal incision was made, followed by blunt dissection of the renal pedicles. Two or three branches of the left renal artery were ligated to infarct two thirds of the left kidney, while the right kidney underwent simultaneous nephrectomy. The infarct was verified by observing the change in kidney color. Animal body temperature was maintained constant, and warm (˜37° C.) saline (1.0 mL) was administered directly into the abdomen. Thereafter, the incision was sutured and the animal was allowed to recover and have free access to regular food and water. Animal body weight and mortality were closely monitored.
# Starting 35 days after surgery, Nx and sham animals were randomly divided into groups and treated with either vehicle or compound A. Compound was dosed three times per week by oral gavage at 20 or 40 mg/kg compound per dose. Blood pressure (BP) was measured using a Kent XBP1000 system (Kent Scientific Corp., Torrington, Conn.) or a Muromachi tail-cuff blood pressure system (Muromachi Kikai Co., Ltd., Tokyo, Japan), both having volume/pressure recording technology and used according to the manufacturer's instruction. Rats were slightly warmed under a lamp and conditioned carefully before the measurement. BP was recorded as the mean value of 3 separate measurements obtained at each session and reported herein as mean±SEM. Results are compared using 1-way analysis of variance (ANOVA) and Student-Newman-Keuls method (SigmaStat, SPSS Science, Chicago, Ill.).
# In another series of experiments, rats subjected to 5/6 nephrectomy were treated 35 days after surgery according to the dosing schedule described in Example 3 above with a HIF prolyl hydroxylase inhibitor. Individual compound selected from the group consisting of compounds A and C-K were administered by oral gavage at 8, 20, 30, or 40 mg/kg (see Table 1 and Table 2). Systolic blood pressure was recorded at day 35 (baseline) and again immediately following the last dose of compound. Table 1 and Table 2 show changes in systolic blood pressure following four weeks of oral administration of various compounds of the present invention to Nx rats.
# [3] = test system: human subjects with chronic kidney disease; assay: Blood pressure in human CKD subjects over a 24 hour period after oral dosing, Example 5; format: in vivo
# Experimental: Hypertension is a common condition in patients with chronic kidney disease. (Agarwal et al. (2005) Hypertension 46:514-520.) The effect of a compound of the present invention on blood pressure in anemic and non-anemic human subjects with advanced stage chronic kidney disease was examined. All study subjects had chronic kidney disease (CKD), defined as having a glomerular filtration rate (GFR)<59 ml/min. Some of these CKD subjects also had anemia, defined as having hemoglobin (Hb) levels<11 g/dL. Subjects were orally administered compound A or a placebo two or three times per week for four weeks. Blood pressure readings (i.e. systolic, diastolic, and mean arterial pressure) were taken at various times with a sphygmomanometer according to standard assessments. In one series of experiments, the effect of methods and medicaments of the present invention on blood pressure in anemic and non-anemic subjects with advanced stage chronic kidney disease was examined over a 24 hour period. Subjects were orally administered compound A or a placebo and blood pressure readings were taken at 1, 2, 3, 4, 6, 12, and 24 hours following treatment. […] Table 3, Table 4, and Table 5 below show hourly changes in mean arterial pressure (MAP), systolic blood pressure (SBP), and diastolic blood pressure (DBP) following oral administration of […] to human CKD subjects.
smiles,measurement,setting,value
"Cc1nc(C(=O)NCC(=O)O)c(O)c2ccc(Oc3ccccc3)cc12 [A, [(4-hydroxy-1-methyl-7-phenoxy-isoquinoline-3-carbonyl)-amino]-acetic acid]",systolic blood pressure (SBP),[1]; 20 mg/kg oral gavage three times per week,164.7±26.7 mmHg
same,systolic blood pressure (SBP),[1]; 40 mg/kg oral gavage three times per week,155.4±42.9 mmHg
same,SBP (mmHg) Change from Baseline,[2],−31.10 mmHg
same,SBP (mmHg) Change from Vehicle,[2],−40.31 mmHg
same,Mean change from Baseline Diastolic BP (mmHg),"[3]; All Subjects, 3 hour",−5.45 mmHg
same,Mean change from Baseline MAP (mmHg),"[3]; All Subjects, 3 hour",−4.35 mmHg
same,Mean change from Baseline Systolic BP (mmHg),"[3]; All Subjects, 3 hour",−2.09 mmHg
same,Mean change from Baseline Diastolic BP (mmHg),"[3]; All Subjects, 4 hour",−6.36 mmHg
same,Mean change from Baseline MAP (mmHg),"[3]; All Subjects, 4 hour",−6.60 mmHg
same,Mean change from Baseline Systolic BP (mmHg),"[3]; All Subjects, 4 hour",−7.00 mmHg
same,Mean change from Baseline Diastolic BP (mmHg),"[3]; All Subjects, 6 hour",−7.00 mmHg
same,Mean change from Baseline MAP (mmHg),"[3]; All Subjects, 6 hour",−9.18 mmHg
same,Mean change from Baseline Systolic BP (mmHg),"[3]; All Subjects, 6 hour",−13.45 mmHg
same,Mean change from Baseline Diastolic BP (mmHg),"[3]; All Subjects, 12 hour",−2.55 mmHg
same,Mean change from Baseline MAP (mmHg),"[3]; All Subjects, 12 hour",−3.29 mmHg
same,Mean change from Baseline Systolic BP (mmHg),"[3]; All Subjects, 12 hour",−4.73 mmHg
same,Mean change from Baseline Diastolic BP (mmHg),"[3]; All Subjects, 24 hour",−1.55 mmHg
same,Mean change from Baseline MAP (mmHg),"[3]; All Subjects, 24 hour",−2.55 mmHg
same,Mean change from Baseline Systolic BP (mmHg),"[3]; All Subjects, 24 hour",−4.45 mmHg
same,Mean change from Baseline Diastolic BP (mmHg),"[3]; Anemic, 3 hour",−13.67 mmHg
same,Mean change from Baseline MAP (mmHg),"[3]; Anemic, 3 hour",−11.10 mmHg
same,Mean change from Baseline Systolic BP (mmHg),"[3]; Anemic, 3 hour",−6.33 mmHg
same,Mean change from Baseline Diastolic BP (mmHg),"[3]; Anemic, 4 hour",−12.67 mmHg
same,Mean change from Baseline MAP (mmHg),"[3]; Anemic, 4 hour",−14.67 mmHg
same,Mean change from Baseline Systolic BP (mmHg),"[3]; Anemic, 4 hour",−19.00 mmHg
same,Mean change from Baseline Diastolic BP (mmHg),"[3]; Anemic, 6 hour",−10.00 mmHg
same,Mean change from Baseline MAP (mmHg),"[3]; Anemic, 6 hour",−12.33 mmHg
same,Mean change from Baseline Systolic BP (mmHg),"[3]; Anemic, 6 hour",−17.33 mmHg
same,Mean change from Baseline Diastolic BP (mmHg),"[3]; Anemic, 12 hour",−5.00 mmHg
same,Mean change from Baseline MAP (mmHg),"[3]; Anemic, 12 hour",−2.00 mmHg
same,Mean change from Baseline Systolic BP (mmHg),"[3]; Anemic, 12 hour",3.67 mmHg
same,Mean change from Baseline Diastolic BP (mmHg),"[3]; Anemic, 24 hour",−3.33 mmHg
same,Mean change from Baseline MAP (mmHg),"[3]; Anemic, 24 hour",−3.77 mmHg
same,Mean change from Baseline Systolic BP (mmHg),"[3]; Anemic, 24 hour",−5.00 mmHg
same,Mean change from Baseline Diastolic BP (mmHg),"[3]; Non-Anemic, 3 hour",−2.38 mmHg
same,Mean change from Baseline MAP (mmHg),"[3]; Non-Anemic, 3 hour",−3.81 mmHg
same,Mean change from Baseline Systolic BP (mmHg),"[3]; Non-Anemic, 3 hour",−0.50 mmHg
same,Mean change from Baseline Diastolic BP (mmHg),"[3]; Non-Anemic, 4 hour",−4.00 mmHg
same,Mean change from Baseline MAP (mmHg),"[3]; Non-Anemic, 4 hour",−3.58 mmHg
same,Mean change from Baseline Systolic BP (mmHg),"[3]; Non-Anemic, 4 hour",−2.50 mmHg
same,Mean change from Baseline Diastolic BP (mmHg),"[3]; Non-Anemic, 6 hour",−5.88 mmHg
same,Mean change from Baseline MAP (mmHg),"[3]; Non-Anemic, 6 hour",−8.00 mmHg
same,Mean change from Baseline Systolic BP (mmHg),"[3]; Non-Anemic, 6 hour",−12.00 mmHg
same,Mean change from Baseline Diastolic BP (mmHg),"[3]; Non-Anemic, 12 hour",−1.63 mmHg
same,Mean change from Baseline MAP (mmHg),"[3]; Non-Anemic, 12 hour",−3.78 mmHg
same,Mean change from Baseline Systolic BP (mmHg),"[3]; Non-Anemic, 12 hour",−7.88 mmHg
same,Mean change from Baseline Diastolic BP (mmHg),"[3]; Non-Anemic, 24 hour",−0.88 mmHg
same,Mean change from Baseline MAP (mmHg),"[3]; Non-Anemic, 24 hour",−8.00 mmHg
same,Mean change from Baseline Systolic BP (mmHg),"[3]; Non-Anemic, 24 hour",−4.25 mmHg
same,blood pressure at 1 and 2 hours post dosing,"[3]; all CKD subjects, oral, same with placebo, data not shown",small increases in blood pressure
